Laboratory results as given in patent US20240270809A1, “ORAL GLP RECEPTOR AGONISTS” (priority 2020, published 2024).
Read-outs that look alike come from different tables or passages of the source. Positions of bridges follow the written chain, without caps; N, C: chain ends. Non-standard residues stand in square brackets, D forms with d. Residues, ends and D or L forms follow the SMILES beside them. *: point of attachment. Malonyl(2,2-Me2,histaminyl) = CC(C)(C(=O)NCCc1cnc[nH]1)C(=O)*; Ala(1H-tetrazol-5-yl) = N[C@@H](Cc1nnn[nH]1)C(=O)O; αMePhe(2-F) = C[C@](N)(Cc1ccccc1F)C(=O)O; Nle = CCCC[C@H](N)C(=O)O

Columns and labels:
human GLP1 receptor = target: T1, human GLP1 receptor (Homo sapiens, UniProt P43220); test: cAMP accumulation assay, functional agonism of human GLP1 receptor; format: cell-based; details: HEK cells infected with human GLP1 receptor BacMam virus, HTRF cAMP; for Emax: HEK293, read-out: Human GLP-1R agonist cAMP Emax; for EC50: read-out: Human GLP-1R agonist cAMP pEC50 (converted)
T1 construct: expressed in transfected cells; host or cells: HEK cells, BacMam virus transduction
T1 sequence (P43220 24-463): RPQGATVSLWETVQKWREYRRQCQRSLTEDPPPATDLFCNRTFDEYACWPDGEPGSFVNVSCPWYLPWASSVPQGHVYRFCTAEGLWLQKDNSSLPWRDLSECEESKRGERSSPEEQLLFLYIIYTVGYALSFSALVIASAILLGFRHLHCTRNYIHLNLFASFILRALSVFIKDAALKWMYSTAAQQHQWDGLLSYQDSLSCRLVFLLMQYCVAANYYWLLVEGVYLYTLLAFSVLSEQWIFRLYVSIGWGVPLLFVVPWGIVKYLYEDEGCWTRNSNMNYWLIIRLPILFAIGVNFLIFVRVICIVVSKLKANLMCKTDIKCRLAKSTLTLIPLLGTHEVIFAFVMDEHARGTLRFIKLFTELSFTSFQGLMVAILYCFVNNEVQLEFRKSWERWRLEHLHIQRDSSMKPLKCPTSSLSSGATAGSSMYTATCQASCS
Outline: (§1)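 Frozen HEK cells, previously BacMam-infected 24 h to express either receptor, are stimulated for 45 min at 37° C in IBMX-containing (0.5 mM) HBSS. The reaction is then terminated with HTRF reagents in lysis buffer.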

mouse GLP2 receptor = target: T2, mouse GLP2 receptor (Mus musculus, UniProt Q5IXF8); test: cAMP accumulation assay, functional agonism of mouse GLP2 receptor; format: cell-based
T2 construct: expressed in transfected cells; host or cells: HEK cells, transient transfection with GeneJuice
T2 sequence (Q5IXF8 1-512): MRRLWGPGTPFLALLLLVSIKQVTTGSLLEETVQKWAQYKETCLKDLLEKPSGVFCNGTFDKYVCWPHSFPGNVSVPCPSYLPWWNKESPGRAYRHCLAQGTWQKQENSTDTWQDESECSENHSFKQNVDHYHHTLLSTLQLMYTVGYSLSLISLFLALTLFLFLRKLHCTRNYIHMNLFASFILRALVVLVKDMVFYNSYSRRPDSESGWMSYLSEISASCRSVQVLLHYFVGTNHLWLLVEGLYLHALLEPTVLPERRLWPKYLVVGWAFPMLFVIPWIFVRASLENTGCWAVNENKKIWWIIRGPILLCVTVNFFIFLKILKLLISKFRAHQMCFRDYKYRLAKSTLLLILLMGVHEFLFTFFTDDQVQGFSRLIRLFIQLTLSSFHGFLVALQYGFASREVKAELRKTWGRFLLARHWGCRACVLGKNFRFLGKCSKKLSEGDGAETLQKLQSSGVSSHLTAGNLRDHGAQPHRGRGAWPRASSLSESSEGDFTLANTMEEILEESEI
Outline: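 Transiently transfected HEK cells (24 h, frozen, 8000/well) in HBSS with 0.5 mM IBMX exposed to compound concentration series for 45 min at 37 °C. cAMP measured by HTRF after lysis and 1 h at RT; pEC50 from four-parameter concentration-response fit.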

[1] = Stability of peptides in rat intestinal fluid (ratIF); details: Sprague Dawley, undiluted rat small intestinal fluid (ratIF)
Experimental: (§2) Peptides were tested for in vitro stability in native intestinal fluid obtained from the rat small intestine. Rat Sprague Dawley Small Intestinal Fluid (ratIF) (from Biotrend art. no. RSD-SIF-MI-30ML, undiluted) was preincubated for 15 min at 37° C. and spiked with test and reference item working solutions. Experiments were conducted in duplicate in a non-serial manner. The total incubation volume per replicate was 150 μl. […] All samples and calibration standards (prepared in ratIF) were precipitated by addition of 300 μl precipitant (ACN / 2% acetic acid / 0.2% HFBA, (precipitation regent, PR)) containing internal standards (ISTD) to 150 μl sample. After incubation for 1 h at room temperature all samples were centrifuged for 10 min at 2,200×g (room temperature).

human GLP2 receptor = target: T3, human GLP2 receptor (Homo sapiens, UniProt O95838); test: cAMP accumulation assay, functional agonism of human GLP2 receptor; format: cell-based; details: HEK cells infected with human GLP2 receptor BacMam virus, HTRF cAMP; for Emax: HEK293, read-out: Human GLP-2R agonist cAMP Emax; for EC50: read-out: Human GLP-2R agonist cAMP pEC50 (converted)
T3 construct: expressed in transfected cells; host or cells: HEK cells, BacMam virus transduction
T3 sequence (O95838 1-553): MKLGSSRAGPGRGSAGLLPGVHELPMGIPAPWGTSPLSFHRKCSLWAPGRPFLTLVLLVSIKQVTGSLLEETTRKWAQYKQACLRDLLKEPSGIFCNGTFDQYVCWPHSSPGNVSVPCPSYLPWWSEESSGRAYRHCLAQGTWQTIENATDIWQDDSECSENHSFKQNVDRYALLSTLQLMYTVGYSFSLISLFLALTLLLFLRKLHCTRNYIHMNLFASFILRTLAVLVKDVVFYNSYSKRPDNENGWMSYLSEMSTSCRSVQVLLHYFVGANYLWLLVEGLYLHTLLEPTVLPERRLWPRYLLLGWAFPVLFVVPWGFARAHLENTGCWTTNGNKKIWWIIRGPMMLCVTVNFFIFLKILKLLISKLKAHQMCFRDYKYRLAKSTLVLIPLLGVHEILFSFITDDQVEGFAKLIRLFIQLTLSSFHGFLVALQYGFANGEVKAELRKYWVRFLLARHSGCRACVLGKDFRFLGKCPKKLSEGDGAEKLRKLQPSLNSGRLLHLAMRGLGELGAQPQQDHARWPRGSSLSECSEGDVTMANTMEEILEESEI
Outline: as §1

[2] = Stability of peptides in Fasted-State Simulated Gastric Fluid (FaSSGF); format: in vitro ADME; details: FaSSGF with 0.1 mg/ml pepsin; t=30 mins, 37° C., pH 1.6, 0.1 mg/ml pepsin
Experimental: Stability of peptides was tested in Fasted-State Simulated gastric Fluid (FaSSGF) prepared according to manufacturer's protocol (Biorelevant, art. no. FFF01). […] FaSSGF was pre-incubated for 15 min at 37° C. and spiked with test and reference item working solutions. Experiments were conducted in duplicate in a non-serial manner. The total incubation volume per replicate was 150 μl. […] All samples and calibration standards (prepared in FaSSGF) were precipitated by addition of 300 μl precipitant (ACN / 2% acetic acid / 0.2% HFBA, (precipitation regent, PR)) containing internal standards (ISTD) to 150 μl sample. After incubation for 1 h at room temperature all samples were centrifuged for 10 min at 2,200×g (room temperature).

[3] = Stability of peptides in Fasted-State Simulated Intestinal Fluid (FaSSIF); format: in vitro ADME; details: FaSSIF with 10 mg/ml pancreatin; t=30 mins, 37° C., pH 6.5, 10 mg/ml pancreatin
mouse GLP1 receptor = target: T4, mouse GLP1 receptor (Mus musculus, UniProt O35659); test: cAMP accumulation assay, functional agonism of mouse GLP1 receptor; format: cell-based; details: HEK cells transiently transfected with mouse GLP1 receptor, HTRF cAMP
T4 construct: expressed in transfected cells; host or cells: HEK cells, transient transfection with GeneJuice
T4 sequence (O35659 22-463): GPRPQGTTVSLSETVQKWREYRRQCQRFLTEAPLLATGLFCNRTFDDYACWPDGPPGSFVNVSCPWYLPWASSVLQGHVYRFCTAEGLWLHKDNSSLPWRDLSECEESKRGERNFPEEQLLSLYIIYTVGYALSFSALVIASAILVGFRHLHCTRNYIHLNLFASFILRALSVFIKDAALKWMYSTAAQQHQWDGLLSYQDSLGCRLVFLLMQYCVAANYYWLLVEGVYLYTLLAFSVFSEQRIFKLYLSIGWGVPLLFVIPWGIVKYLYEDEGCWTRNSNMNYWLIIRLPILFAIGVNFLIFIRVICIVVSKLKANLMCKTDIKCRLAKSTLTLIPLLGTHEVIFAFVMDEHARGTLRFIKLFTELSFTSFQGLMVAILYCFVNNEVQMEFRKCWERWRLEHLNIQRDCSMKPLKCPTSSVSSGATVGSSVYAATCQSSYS
Experimental: CAMP production upon agonist stimulation of mouse GLP2 or GLP1 receptors was assessed utilizing HiRange cAMP kit (Cisbio). In brief, HEK cells were transiently transfected for 24 hours with cDNA using GeneJuice Transfection reagent (EMD Millipore) and frozen at −80° C. for later use in the assay. […] Cells were prepared in the assay buffer (HBSS (Lonza) supplemented with 0.5 mM IBMX (Tocris)). After 45 min incubation at 37° C., the reaction was stopped by addition of the HTRF detection reagents in the lysis buffer provided in the kit. Following 1-hour incubation at RT, plates were read on Pherastar FS (BMG Labtech, Inc.) using standard HTRF settings. Dotmatics Studies software was used for calculation of pEC50 values by fitting data to a four-parameter concentration response curve.

in vitro = details: Sprague Dawley, rat, real gastrointestinal fluid or homogenate
Experimental: as §2

Emax (mouse GLP2 receptor; HEK293, HEK cells transiently transfected with mouse GLP2 receptor, HTRF cAMP, read-out: Mouse GLP-2R agonist cAMP Emax) [%]	EC50 (mouse GLP2 receptor; HEK cells transiently transfected with mouse GLP2 receptor, HTRF cAMP, read-out: Mouse GLP-2R agonist cAMP pEC50 (converted)) [nM]	remaining at 0.5 h [1] [%]	remaining at 0.5 h [2] [%]	remaining at 0.5 h [3] [%]	Emax (mouse GLP1 receptor; HEK293, read-out: Mouse GLP-1R agonist cAMP Emax) [%]	EC50 (mouse GLP1 receptor; read-out: Mouse GLP-1R agonist cAMP pEC50 (converted)) [nM]	Structure (SMILES)	Emax (human GLP1 receptor) [%]	EC50 (human GLP1 receptor) [nM]	Emax (human GLP2 receptor) [%]	EC50 (human GLP2 receptor) [nM]	EC50 (mouse GLP2 receptor) [nM]	Emax (mouse GLP2 receptor; HEK293, read-out: Mouse GLP-2R agonist cAMP Emax) [%]	remaining at 0.5 h (in vitro) [%]
91.6	1	22.5	34	11	94.3	0.0398	CCCC[C@@H]1NC(=O)[C@H](CCC(=O)O)NC(=O)[C@@H](NC(=O)[C@H](CO)NC(=O)[C@H](Cc2ccccc2)NC(=O)[C@H](CO)NC(=O)CNC(=O)[C@H](Cc2nn[nH]n2)NC(=O)C(C)(C)C(=O)NCCc2c[nH]cn2)CCCCNC(=O)C[C@@H](C(=O)N[C@H](C(=O)N[C@@H](CC(C)C)C(=O)N[C@@H](CC(=O)O)C(=O)N[C@H]2CCC(=O)NCCCC[C@@H](C(=O)N[C@@H](CC(=O)O)C(=O)N[C@@H](Cc3ccccc3)C(=O)N[C@H](C(=O)N[C@@H](CC(N)=O)C(=O)N[C@@H](Cc3c[nH]c4ccccc34)C(=O)N[C@@H](CC(C)C)C(=O)N[C@H](C(=O)N[C@@H](CCC(N)=O)C(=O)N[C@H](C(=O)N[C@H]3CCC(=O)NCCCC[C@@H](C(N)=O)NC(=O)[C@H]([C@@H](C)O)NC(=O)[C@H]([C@@H](C)CC)NC3=O)[C@@H](C)O)[C@@H](C)CC)[C@@H](C)CC)NC(=O)[C@H](C)NC(=O)[C@H](C)NC(=O)[C@H](CCCCN)NC2=O)[C@@H](C)CC)NC(=O)[C@@H](Cc2ccccc2)NC1=O [Example 2] ({Malonyl(2,2-Me2,histaminyl)}-[Ala(1H-tetrazol-5-yl)]GSFSKE[Nle][dF]DILDEKAAKDFINWLIQTEITK-NH2; lactam 6-10, 14-18, 28-31 (inferred); C-terminus assumed)	92.5	0.398	103	0.0316	–	–	–
–	–	–	–	–	–	–	CCCC[C@@H]1NC(=O)[C@H](CCC(=O)O)NC(=O)[C@@H](NC(=O)[C@H](CO)NC(=O)[C@](C)(Cc2ccccc2F)NC(=O)[C@H](CO)NC(=O)[C@@H](C)NC(=O)[C@H](Cc2nn[nH]n2)NC(=O)C(C)(C)C(=O)NCCc2c[nH]cn2)CCCCNC(=O)C[C@@H](C(=O)N[C@H](C(=O)N[C@@H](CC(C)C)C(=O)N[C@@H](CC(=O)O)C(=O)N[C@H]2CCC(=O)NCCCC[C@@H](C(=O)N[C@@H](CC(=O)O)C(=O)N[C@@H](Cc3ccccc3)C(=O)N[C@H](C(=O)N[C@H]3CCCCNC(=O)C[C@@H](C(=O)N[C@H]4CCC(=O)NCCCC[C@@H](C(N)=O)NC(=O)[C@H]([C@@H](C)O)NC(=O)[C@H]([C@@H](C)CC)NC(=O)[C@H](CCCCN)NC4=O)NC(=O)[C@H]([C@@H](C)CC)NC(=O)[C@H](CC(C)C)NC(=O)[C@H](Cc4c[nH]c5ccccc45)NC3=O)[C@@H](C)CC)NC(=O)[C@H](C)NC(=O)[C@H](C)NC(=O)[C@H](CCCCN)NC2=O)[C@@H](C)CC)NC(=O)[C@@H](Cc2ccccc2)NC1=O [Example 55] ({Malonyl(2,2-Me2,histaminyl)}-[Ala(1H-tetrazol-5-yl)][dA]S[αMePhe(2-F)]SKE[Nle][dF]DILDEKAAKDFIKWLIDEKITK-NH2; lactam 6-10, 14-18, 22-26, 27-31 (inferred); C-terminus assumed)	97.9	0.0501	103	0.01	0.316	101	64.9
